Patent publication US20100022491A1, “4-HYDROXY-2-OXO-2,3-DIHYDRO-1,3-BENZOTHIAZOL-7YL COMPOUNDS FOR MODULATION OF B2-ADRENORECEPTOR ACTIVITY” (ASTRAZENECA AB, priority 2006, published 2010)
Structures can show the parent of a compound that is named as a salt.

What was measured:
[1] = target: T1, recombinant human α1D receptor (Homo sapiens, UniProt P25100); assay: Adrenergic α1D selectivity binding assay ([3H]-prazosin); details: inhibition of [3H]-prazosin (0.3 nM) binding, HEK293 membranes; for IC50: read-out: α1 bind pIC50 (converted)
T1 construct: expressed in transfected cells; host or cells: HEK293
T1 sequence (P25100 1-572): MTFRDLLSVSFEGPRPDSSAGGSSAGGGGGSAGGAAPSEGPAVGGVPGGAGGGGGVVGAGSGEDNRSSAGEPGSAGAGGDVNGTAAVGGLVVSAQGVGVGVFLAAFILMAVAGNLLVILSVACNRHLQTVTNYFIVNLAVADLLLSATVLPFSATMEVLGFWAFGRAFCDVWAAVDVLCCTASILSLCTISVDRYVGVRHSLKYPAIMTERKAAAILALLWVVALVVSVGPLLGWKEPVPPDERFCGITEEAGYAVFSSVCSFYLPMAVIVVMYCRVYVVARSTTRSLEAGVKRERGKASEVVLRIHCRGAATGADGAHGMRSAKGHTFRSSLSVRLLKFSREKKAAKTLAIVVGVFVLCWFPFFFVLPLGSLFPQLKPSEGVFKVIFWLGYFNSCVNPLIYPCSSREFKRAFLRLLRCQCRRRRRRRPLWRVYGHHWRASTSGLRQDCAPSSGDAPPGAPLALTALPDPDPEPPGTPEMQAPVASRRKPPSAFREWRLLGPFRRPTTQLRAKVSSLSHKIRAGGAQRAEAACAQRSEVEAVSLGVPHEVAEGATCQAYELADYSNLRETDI
Summary of the method: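 Displacement of [3H]-prazosin (0.3 nM) from recombinant human α1D receptor in HEK293-cell membranes, 2 h at room temperature, pH 7.4 HEPES/EDTA/gelatin buffer. Filtration and scintillation counting, non-specific binding set with 10 μM BMY7378; four-parameter logistic fit gives pIC50.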

[2] = target: T2, recombinant human adrenergic beta 1 receptors (Homo sapiens, UniProt P08588); assay: Adrenergic β1 selectivity binding assay ([125I]-Iodocyanopindolol); details: inhibition of [125I]-Iodocyanopindolol (0.036 nM) binding; for IC50: read-out: β1 bind p IC50 (converted)
T2 construct: purchased Euroscreen
Summary of the method: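 Displacement of [^125I]-Iodocyanopindolol (0.036 nM final) from human β1 receptor membranes, 2 hours at room temperature, pH 7.4 HEPES/EDTA/NaCl buffer. After filtration, scintillation counting; NSB set with 10 μM propranolol and subtracted. Four-parameter logistic fitting gave pIC50.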

[3] = target: T3, recombinant human Dopamine Subtype D2s receptors (Homo sapiens, UniProt P14416); assay: Dopamine D2 selectivity binding assay ([3H]-spiperone); details: inhibition of [3H]-spiperone (0.16 nM) binding; for IC50: read-out: D2 bind pIC50 (converted)
T3 construct: purchased Perkin Elmer
Summary of the method: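 Displacement of [3H]-spiperone (0.16 nM final) from human D2s receptor membranes in pH 7.4 HEPES buffer over 2 h at room temperature, then filtration and scintillation counting. Specific binding taken as vehicle minus 10 μM haloperidol wells. Potency given as pIC50 from a four-parameter logistic curve.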

T3 sequence (P14416 1-414 isoform P14416-2): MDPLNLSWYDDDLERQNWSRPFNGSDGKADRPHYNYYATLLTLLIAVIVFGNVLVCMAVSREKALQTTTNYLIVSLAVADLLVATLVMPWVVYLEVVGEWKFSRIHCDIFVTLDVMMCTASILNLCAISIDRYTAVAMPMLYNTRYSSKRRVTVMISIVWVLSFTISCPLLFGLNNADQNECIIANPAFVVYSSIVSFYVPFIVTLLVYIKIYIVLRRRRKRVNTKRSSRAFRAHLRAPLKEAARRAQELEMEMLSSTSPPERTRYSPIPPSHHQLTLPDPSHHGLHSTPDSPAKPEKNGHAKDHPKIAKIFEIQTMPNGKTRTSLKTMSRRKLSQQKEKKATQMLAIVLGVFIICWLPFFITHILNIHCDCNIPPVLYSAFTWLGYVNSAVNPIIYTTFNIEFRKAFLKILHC
T2 sequence (P08588 whole entry): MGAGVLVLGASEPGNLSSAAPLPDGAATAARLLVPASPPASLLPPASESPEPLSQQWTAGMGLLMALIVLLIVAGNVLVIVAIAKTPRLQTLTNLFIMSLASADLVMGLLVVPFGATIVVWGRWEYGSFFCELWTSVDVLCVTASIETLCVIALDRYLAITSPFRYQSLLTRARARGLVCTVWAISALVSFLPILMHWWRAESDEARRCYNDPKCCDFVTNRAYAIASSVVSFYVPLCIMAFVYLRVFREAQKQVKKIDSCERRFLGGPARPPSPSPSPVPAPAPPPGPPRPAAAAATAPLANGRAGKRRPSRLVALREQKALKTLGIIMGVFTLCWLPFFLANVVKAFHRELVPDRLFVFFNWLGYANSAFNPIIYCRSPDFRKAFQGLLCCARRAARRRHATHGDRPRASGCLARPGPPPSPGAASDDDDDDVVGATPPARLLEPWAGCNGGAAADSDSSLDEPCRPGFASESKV

| Structure (SMILES) | IC50 [1] [nM] | IC50 [2] [nM] | IC50 [3] [nM] | α1 bind pIC50 [1] | β1 bind p IC50 [2] | D2 bind pIC50 [3] |
| --- | --- | --- | --- | --- | --- | --- |
| O=C(CCNCCc1ccccc1)N(CCNCCc1ccc(O)c2[nH]c(=O)sc12)C1CCCC1 [Example 2, N-Cyclopentyl-N-(2-{[2-(4-hydroxy-2-oxo-2,3-dihydro-1,3-benzothiazol-7-yl)ethyl]amino}ethyl)-N^3-(2-phenylethyl)-β-alaninamide bis-trifluoroacetic acid salt] | 126 | 5010 | 251 | – | – | – |
| O=C(CCNCCc1cccc(Cl)c1)N(CCNCCc1ccc(O)c2[nH]c(=O)sc12)C1CCCC1 [Example 30, N^3-[2-(3-Chlorophenyl)ethyl]-N-cyclopentyl-N-(2-{[2-(4-hydroxy-2-oxo-2,3-dihydro-1,3-benzothiazol-7-yl)ethyl]amino}ethyl)-β-alaninamide bis-trifluoroacetic acid salt] | 200 | 3160 | 316 | – | – | – |
| Cc1cccc(CCNCCC(=O)N(CCNCCc2ccc(O)c3[nH]c(=O)sc23)C2CCOCC2)c1 [Example 25, N-(2-{[2-(4-Hydroxy-2-oxo-2,3-dihydro-1,3-benzothiazol-7-yl)ethyl]amino}ethyl)-N^3-[2-(3-methylphenyl)ethyl]-N-(tetrahydro-2H-pyran-4-yl)-β-alaninamide bis-trifluoroacetic acid salt] | 251 | 5010 | 2510 | – | – | – |
| CC(C)(C)CN(CCNCCc1ccc(O)c2[nH]c(=O)sc12)C(=O)CCNCCc1ccccc1 [Example 6, N-(2,2-Dimethylpropyl)-N-(2-{[2-(4-hydroxy-2-oxo-2,3-dihydro-1,3-benzothiazol-7-yl)ethyl]amino}ethyl)-N^3-(2-phenylethyl)-β-alaninamide bis-trifluoroacetic acid salt] | 126 | 794 | 200 | – | – | – |
| O=C(CCNCCc1ccccc1Cl)N(CCNCCc1ccc(O)c2[nH]c(=O)sc12)C1CCCC1 [Example 29, N^3-[2-(2-Chlorophenyl)ethyl]-N-cyclopentyl-N-(2-{[2-(4-hydroxy-2-oxo-2,3-dihydro-1,3-benzothiazol-7-yl)ethyl]amino}ethyl)-β-alaninamide bis-trifluoroacetic acid salt] | 100 | 3160 | 251 | – | – | – |
| Cc1ccccc1CCNCCC(=O)N(CCNCCc1ccc(O)c2[nH]c(=O)sc12)C1CCOCC1 [Example 27, N-(2-{[2-(4-Hydroxy-2-oxo-2,3-dihydro-1,3-benzothiazol-7-yl)ethyl]amino}ethyl)-N^3-[2-(2-methylphenyl)ethyl]-N-(tetrahydro-2H-pyran-4-yl)-β-alaninamide bis-trifluoroacetic acid salt] | 251 | 5010 | 3160 | – | – | – |
| O=C(CCNCCc1cc(F)cc(F)c1)N(CCNCCc1ccc(O)c2[nH]c(=O)sc12)C1CCCCC1 [Example 78, N^1-Cyclohexyl-N^3-[2-(3,5-difluorophenyl)ethyl]-N^1-(2-{[2-(4-hydroxy-2-oxo-2,3-dihydro-1,3-benzothiazol-7-yl)ethyl]amino}ethyl)-β-alaninamide bis-trifluoroacetic acid salt] | 251 | 3980 | 316 | – | – | – |
| O=C(CCNCCc1ccc(Cl)cc1)N(CCNCCc1ccc(O)c2[nH]c(=O)sc12)C1CCCC1 [Example 28, N^3-[2-(4-Chlorophenyl)ethyl]-N-cyclopentyl-N-(2-{[2-(4-hydroxy-2-oxo-2,3-dihydro-1,3-benzothiazol-7-yl)ethyl]amino}ethyl)-β-alaninamide bis-trifluoroacetic acid salt] | 316 | 6310 | 398 | – | – | – |
| O=C(CCNCCc1cc(F)cc(F)c1)N(CCNCCc1ccc(O)c2[nH]c(=O)sc12)C1CCCCC1 [Example 92, N-Cyclohexyl-N^3-[2-(3,5-difluorophenyl)ethyl]-N-(2-{[2-(4-hydroxy-2-oxo-2,3-dihydro-1,3-benzothiazol-7-yl)ethyl]amino}ethyl)-β-alaninamide dihydrobromide salt] | – | – | – | 6.6 | 5.4 | 6.5 |

Continued, in another order:

| IC50 [1] [nM] | IC50 [2] [nM] | IC50 [3] [nM] | Structure (SMILES) | α1 bind pIC50 [1] | β1 bind p IC50 [2] | D2 bind pIC50 [3] |
| --- | --- | --- | --- | --- | --- | --- |
| 158 | 1580 | 39.8 | O=C(CCNCCc1ccccc1Cl)N(CCNCCc1ccc(O)c2[nH]c(=O)sc12)C1CCC(F)(F)CC1 [Example 46, N^3-[2-(2-Chlorophenyl)ethyl]-N^1-(4,4-difluorocyclohexyl)-N^1-(2-{[2-(4-hydroxy-2-oxo-2,3-dihydro-1,3-benzothiazol-7-yl)ethyl]amino}ethyl)-β-alaninamide bis-trifluoroacetic acid salt] | – | – | – |
| 200 | 3980 | 50.1 | COc1ccc(CCNCCC(=O)N(CCNCCc2ccc(O)c3[nH]c(=O)sc23)C2CCCCC2)cc1 [Example 68, N^1-Cyclohexyl-N^1-(2-{[2-(4-hydroxy-2-oxo-2,3-dihydro-1,3-benzothiazol-7-yl)ethyl]amino}ethyl)-N^3-[2-(4-methoxyphenyl)ethyl]-β-alaninamide bis-trifluoroacetic acid salt] | – | – | – |
| 100 | 1000 | 398 | CC(C)(CO)CN(CCNCCc1ccc(O)c2[nH]c(=O)sc12)C(=O)CCNCCc1ccccc1Cl [Example 65, N^3-[2-(2-Chlorophenyl)ethyl]-N^1-(3-hydroxy-2,2-dimethylpropyl)-N^1-(2-{[2-(4-hydroxy-2-oxo-2,3-dihydro-1,3-benzothiazol-7-yl)ethyl]amino}ethyl)-β-alaninamide bis-trifluoroacetic acid salt] | – | – | – |
| 100 | 794 | 63.1 | CC(CN(C(=O)CCNCCc1cccc(F)c1)C1CCCCCC1)NCCc1ccc(O)c2[nH]c(=O)sc12 (stereo not drawn) [Example 104, N-Cycloheptyl-N^3-[2-(3-fluorophenyl)ethyl]-N-(2-{[2-(4-hydroxy-2-oxo-2,3-dihydro-1,3-benzothiazol-7-yl)ethyl]amino}propyl)-β-alaninamide bis-trifluoroacetic acid salt] | – | – | – |
| 158 | 5010 | 200 | COc1cccc(CCNCCC(=O)N(CCNCCc2ccc(O)c3[nH]c(=O)sc23)CC(C)(C)C)c1 [Example 43, N^1-(2,2-Dimethylpropyl)-N^1-(2-{[2-(4-hydroxy-2-oxo-2,3-dihydro-1,3-benzothiazol-7-yl)ethyl]amino}ethyl)-N^3-[2-(3-methoxyphenyl)ethyl]-β-alaninamide bis-trifluoroacetic acid salt] | – | – | – |
| 251 | 3160 | 31.6 | O=C(CCNCCc1cccc(F)c1F)N(CCNCCc1ccc(O)c2[nH]c(=O)sc12)C1CCCCCC1 [Example 56, N^1-Cycloheptyl-N^3-[2-(2,3-difluorophenyl)ethyl]-N^1-(2-{[2-(4-hydroxy-2-oxo-2,3-dihydro-1,3-benzothiazol-7-yl)ethyl]amino}ethyl)-β-alaninamide bis-trifluoroacetic acid salt] | – | – | – |
| 100 | 1000 | 79.4 | O=C(CCNCCc1c(F)cccc1F)N(CCNCCc1ccc(O)c2[nH]c(=O)sc12)C1CCCCCC1 [Example 84, N^1-Cycloheptyl-N^3-[2-(2,6-difluorophenyl)ethyl]-N^1-(2-{[2-(4-hydroxy-2-oxo-2,3-dihydro-1,3-benzothiazol-7-yl)ethyl]amino}ethyl)-β-alaninamide bis-trifluoroacetic acid salt] | – | – | – |
| 200 | 3980 | 398 | O=C(CCNCCc1cccc(O)c1)N(CCNCCc1ccc(O)c2[nH]c(=O)sc12)C1CCCCCC1 [Example 37, N-Cycloheptyl-N-(2-{[2-(4-hydroxy-2-oxo-2,3-dihydro-1,3-benzothiazol-7-yl)ethyl]amino}ethyl)-N^3-[2-(3-hydroxyphenyl)ethyl]-β-alaninamide bis-trifluoroacetic acid salt] | – | – | – |
| 251 | 2510 | 50.1 | O=C(CCNCCc1cccc(C(F)(F)F)c1)N(CCNCCc1ccc(O)c2[nH]c(=O)sc12)C1CCCCCC1 [Example 82, N^1-Cycloheptyl-N^1-(2-{[2-(4-hydroxy-2-oxo-2,3-dihydro-1,3-benzothiazol-7-yl)ethyl]amino}ethyl)-N^3-{2-[3-(trifluoromethyl)phenyl]ethyl}-β-alaninamide bis-trifluoroacetic acid salt] | – | – | – |
